Experimental data from PMC9081329, “Pharmacokinetics, Mass Balance, Excretion, and Tissue Distribution of Plasmalogen Precursor PPI-1011” (Frontiers in Cell and Developmental Biology, 2022).

Test: Single dose tissue distribution study (QWBA, LSC of blood and plasma)
Assay type: in vivo, Sprague-Dawley rats
Experimental: Six male rats were administered a single oral dose of [^14C]PPI-1011 at 100 mg/kg (200 μCi/kg) and one rat was sacrificed at each of the following time points after the administration of the dose: 8, 12, 18, 24, 48, or 168 h. Terminal blood was collected by cardiac puncture directly into tubes with K2EDTA, an aliquot was stored at 4°C until LSC was performed for radioactivity, while the remaining blood was processed to plasma and stored at −20°C until LSC. Following blood collection, the carcasses were frozen in a cold bath with hexanes and dry ice for at least 8 min and then dried and stored at −70°C for at least 5 h. The carcasses were transferred to a −20°C freezer for at least 12 h before embedding.
QWBA was used to determine radioactivity concentrations in the caecum (contents and mucosa), large intestine (contents and mucosa), small intestine (contents and mucosa), stomach (contents and mucosa), brain, choroid plexus, spinal cord, bone, skin, adrenal gland, pineal body, pituitary gland, thyroid gland, liver, kidney (cortex, medulla and whole kidney), urinary bladder (contents and wall), brown fat, white fat, eye (lens, uveal tract and whole eye), epididymis, prostate gland, testis, ovary, uterus, lung, exorbital lachrymal gland, Harderian gland, pancreas, salivary gland, skeletal muscle, myocardium, cardiac blood, bone marrow, lymph node, spleen, and thymus. As well, LSC was used to determine the total radioactivity in the whole blood and plasma.
The whole-body cryosectioning technique described by ([Ullberg, 1977]) was the basis for embedding and cryosectioning the rats assigned to this study. Each frozen carcass was shaved, and then the limbs and tail were removed prior to embedding. Chilled (4°C) 3% CMC (low viscosity) was utilized to provide a firm support of reinforced ice around each rat and for a secure attachment to the microtome stage. Upon thorough freezing of the embedding medium surrounding each rat, the frozen CMC block was removed from the freezing bath and four 3/8 inch holes were drilled into the block. One cryosection quality control standard (CQCS) was prepared with a known amount of radioactivity and at least 1 ml aliquots were added to each of the four drilled holes. CQCS data were utilized to evaluate the overall performance of the QWBA assay.
Each frozen rat was sagittally trimmed (50–100 μm) at −20°C until exposure of a few target tissues employing a Leica Cryomacrocut heavy-duty microtome (Leica Microsystems Inc.,). Disposable stainless steel Feather type H45L knives (Feather Safety Razor Co., Ltd.) were utilized for trimming and sectioning each frozen rat. Several thinner sections (50 μm) were discarded prior to obtaining multiple 50 μm sections at various cryosectioning levels for QWBA analysis. Upon the collection of at least 60 target tissues in multiple cryosectioning levels, the cryosections were kept in the Cryomacrocut cryochamber for a minimum of 18 h for dehydration depending upon the number of cryosections within the cryochamber. After dehydration was complete, the cryosections were transferred to ambient temperature for processing. Mounted whole-body cryosections and a set of 15 standards were sandwiched between a standard phosphor screen and an exposure cassette. All cryosections were exposed to the phosphor screen for 4-days in a cabinet protected with lead prior to scanning using a Typhoon PhosphorImager (Cytiva). MCID™ Analysis software (InterFocus Ltd.) was utilized to generate a calibration curve of the STD nominal concentrations (nCi/g) versus PhosphorImager response (counts/μm^2 minus background) by weighted (1/x) linear regression analysis ([Potchoiba et al., 1995]; [Potchoiba et al., 1998]). The linear regression curve was then utilized to determine the concentration (nCi/g) of total radioactivity in whole-body tissues and blood. Radioactivity concentrations were expressed as μg Eq/g based on the specific activity of the compound in the final dose formulations. […]

[1] = 24 h post single oral 100 mg/kg
[2] = 48 h post single oral 100 mg/kg

In the case of CC/C=C\C/C=C\C/C=C\C/C=C\C/C=C\C/C=C\CCC(=O)O[C@H](CO[14CH2]CCCCCCCCCCCCCCC)COC(=O)CCCCC1CCSS1 (stereo partly shown) [[^14C]PPI-1011], the “Radioactivity concentration, Choroid Plexus” value [1] is reported as 9.85 μg equivalents/g, the “Radioactivity concentration, Colliculus” value [1] is reported as 2.06 μg equivalents/g and the “Radioactivity concentration, Diaphragm” value [1] is reported as 37.4 μg equivalents/g. For the same compound, the “Radioactivity concentration, Epididymis” value [1] was 40.4 μg equivalents/g, the “Radioactivity concentration, Esophagus” value [1] was 9.46 μg equivalents/g and the “Radioactivity concentration, Exorbital Lacrimal Gland” value [1] was 9.66 μg equivalents/g. For the same compound, the “Radioactivity concentration, Gastric Mucosa” value [1] was 48.7 μg equivalents/g, the “Radioactivity concentration, Harderian Gland” value [1] was 10.5 μg equivalents/g and the “Radioactivity concentration, Intra-Orbital Lacrimal Gland” value [1] was 7.56 μg equivalents/g. The “Radioactivity concentration, Kidney” value [1] was 24.7 μg equivalents/g, the “Radioactivity concentration, Large Intestines” value [1] was 180 μg equivalents/g and the “Radioactivity concentration, Liver” value [1] was 73.4 μg equivalents/g. The “Radioactivity concentration, Lung” value [1] was 30.2 μg equivalents/g, the “Radioactivity concentration, Lymph Node” value [1] was 17.4 μg equivalents/g and the “Radioactivity concentration, Medulla Oblongata” value [1] was 1.98 μg equivalents/g. For the same compound, the “Radioactivity concentration, Muscle” value [1] was 7.57 μg equivalents/g, the “Radioactivity concentration, Myocardium” value [1] was 31.0 μg equivalents/g and the “Radioactivity concentration, Nasal Turbinates” value [1] was 4.81 μg equivalents/g. For the same compound, the “Radioactivity concentration, Ocular - Uveal Tract” value [1] was 4.27 μg equivalents/g, the “Radioactivity concentration, Ocular - Whole Eye” value [1] was 1.14 μg equivalents/g and the “Radioactivity concentration, Olfactory Bulb” value [1] was 2.07 μg equivalents/g. The “Radioactivity concentration, Pancreas” value [1] was 24.8 μg equivalents/g, the “Radioactivity concentration, Parotid Gland” value [1] was 20.5 μg equivalents/g and the “Radioactivity concentration, Pineal Gland” value [1] was 10.8 μg equivalents/g. For the same compound, the “Radioactivity concentration, Pituitary Gland” value [1] was 16.7 μg equivalents/g, the “Radioactivity concentration, Preputial Gland” value [1] was 112 μg equivalents/g and the “Radioactivity concentration, Prostate” value [1] was 56.7 μg equivalents/g. For the same compound, the “Radioactivity concentration, Renal Cortex” value [1] was 26.8 μg equivalents/g, the “Radioactivity concentration, Renal Medulla” value [1] was 25.8 μg equivalents/g and the “Radioactivity concentration, Salivary Gland” value [1] was 21.3 μg equivalents/g. The “Radioactivity concentration, Seminal Vesicles” value [1] was 5.38 μg equivalents/g, the “Radioactivity concentration, Skin - Non-Pigmented” value [1] was 9.26 μg equivalents/g and the “Radioactivity concentration, Small Intestines” value [1] was 247 μg equivalents/g. For the same compound, the “Radioactivity concentration, Spinal Cord” value [1] was 1.75 μg equivalents/g, the “Radioactivity concentration, Spleen” value [1] was 46.3 μg equivalents/g and the “Radioactivity concentration, Stomach” value [1] was 10.8 μg equivalents/g. The “Radioactivity concentration, Testis” value [1] was 4.31 μg equivalents/g, the “Radioactivity concentration, Thalamus” value [1] was 1.71 μg equivalents/g and the “Radioactivity concentration, Thymus” value [1] was 9.79 μg equivalents/g. For the same compound, the “Radioactivity concentration, Thyroid” value [1] was 27.7 μg equivalents/g, the “Radioactivity concentration, Whole Brain” value [1] was 1.95 μg equivalents/g and the “Radioactivity concentration, Adipose - Brown” value [2] was 132 μg equivalents/g. The “Radioactivity concentration, Adipose - Brown (Vessel Wall)” value [2] was 98.6 μg equivalents/g, the “Radioactivity concentration, Adipose - Subcutaneous” value [2] was 82.1 μg equivalents/g and the “Radioactivity concentration, Adipose - Visceral” value [2] was 111 μg equivalents/g. The “Radioactivity concentration, Adrenal Gland” value [2] was 201 μg equivalents/g, the “Radioactivity concentration, Bladder Wall” value [2] was 10.7 μg equivalents/g and the “Radioactivity concentration, Blood - QWBA” value [2] was 4.19 μg equivalents/g. For the same compound, the “Radioactivity concentration, Bone Marrow” value [2] was 15.7 μg equivalents/g, the “Radioactivity concentration, Bone Surface” value [2] was 0.508 μg equivalents/g and the “Radioactivity concentration, Cecum” value [2] was 34.3 μg equivalents/g. For the same compound, the “Radioactivity concentration, Cerebellum” value [2] was 2.60 μg equivalents/g, the “Radioactivity concentration, Cerebrum” value [2] was 2.23 μg equivalents/g and the “Radioactivity concentration, Choroid Plexus” value [2] was 14.4 μg equivalents/g. For the same compound, the “Radioactivity concentration, Colliculus” value [2] was 3.30 μg equivalents/g, the “Radioactivity concentration, Diaphragm” value [2] was 23.0 μg equivalents/g and the “Radioactivity concentration, Epididymis” value [2] was 6.81 μg equivalents/g. The “Radioactivity concentration, Esophagus” value [2] was 10.8 μg equivalents/g, the “Radioactivity concentration, Exorbital Lacrimal Gland” value [2] was 6.13 μg equivalents/g and the “Radioactivity concentration, Gastric Mucosa” value [2] was 37.5 μg equivalents/g. For the same compound, the “Radioactivity concentration, Harderian Gland” value [2] was 11.1 μg equivalents/g, the “Radioactivity concentration, Intra-Orbital Lacrimal Gland” value [2] was 6.64 μg equivalents/g and the “Radioactivity concentration, Kidney” value [2] was 24.6 μg equivalents/g. For the same compound, the “Radioactivity concentration, Large Intestines” value [2] was 19.1 μg equivalents/g, the “Radioactivity concentration, Liver” value [2] was 40.0 μg equivalents/g and the “Radioactivity concentration, Lung” value [2] was 22.9 μg equivalents/g. For the same compound, the “Radioactivity concentration, Lymph Node” value [2] was 20.0 μg equivalents/g, the “Radioactivity concentration, Medulla Oblongata” value [2] was 2.45 μg equivalents/g and the “Radioactivity concentration, Muscle” value [2] was 8.42 μg equivalents/g. The “Radioactivity concentration, Myocardium” value [2] was 26.6 μg equivalents/g, the “Radioactivity concentration, Nasal Turbinates” value [2] was 5.03 μg equivalents/g and the “Radioactivity concentration, Ocular - Uveal Tract” value [2] was 4.78 μg equivalents/g. The “Radioactivity concentration, Ocular - Whole Eye” value [2] was 1.30 μg equivalents/g, the “Radioactivity concentration, Olfactory Bulb” value [2] was 2.01 μg equivalents/g and the “Radioactivity concentration, Pancreas” value [2] was 28.0 μg equivalents/g. For the same compound, the “Radioactivity concentration, Parotid Gland” value [2] was 20.9 μg equivalents/g, the “Radioactivity concentration, Pineal Gland” value [2] was 16.4 μg equivalents/g and the “Radioactivity concentration, Pituitary Gland” value [2] was 19.2 μg equivalents/g. For the same compound, the “Radioactivity concentration, Preputial Gland” value [2] was 76.5 μg equivalents/g, the “Radioactivity concentration, Prostate” value [2] was 7.15 μg equivalents/g and the “Radioactivity concentration, Renal Cortex” value [2] was 24.3 μg equivalents/g. The “Radioactivity concentration, Renal Medulla” value [2] was 22.7 μg equivalents/g, the “Radioactivity concentration, Salivary Gland” value [2] was 22.9 μg equivalents/g and the “Radioactivity concentration, Seminal Vesicles” value [2] was 9.12 μg equivalents/g. For the same compound, the “Radioactivity concentration, Skin - Non-Pigmented” value [2] was 13.4 μg equivalents/g.
